Measurements as given in publication PMC9738531, “Cholinesterases Inhibition, Anticancer and Antioxidant Activity of Novel Benzoxazole and Naphthoxazole Analogs” (Molecules, 2022).
Where two headings read alike, the source gives them in different places.

Experiments:
[1] = DPPH free radical scavenging activity; conditions: concentration scavenging 50% of DPPH radicals; means ± SD of three experiments
Experimental: To evaluate the antioxidant potential of compounds as radical scavengers versus the stable free radicals, 2,2-diphenylpicrylhydrazyl (DPPH) was applied. Antioxidant properties were expressed as the IC50 value—the concentration of compound required for scavenging 50% of DPPH radicals. […].
The DPPH free radical scavenging activities of the synthesized compounds were measured by DPPH, according to the method described in the paper. The free radical scavenging activity was measured as a decrease in the absorbance of DPPH, and calculated using the equation:DPPH scavenging effects (%) = […] [(A0 − A1)/A0]∙100](2) where: A0 was the absorbance of the control reaction and A1 absorbance in the presence of the sample of the analysed compounds [62]. The IC50 values were calculated as the concentration of compound required for scavenging 50% of DPPH [45]. Results were presented as the mean ± standard deviation (SD). The antioxidant activity data were compared using the one-way ANOVA test at the significance level 5%.

[2] = test system: HCV29T (bladder cancer) cells; assay: SRB antiproliferative assay, HCV29T; format: cell-based, human; conditions: 72 h, means ± SD, read-out: IC50 HCV 29T
Experimental: (§1) The compounds were also evaluated for their antiproliferative potencies against human cancer cell lines as the potential anticancer agents. […]. The results are presented in Table 3 and expressed as IC50 (μM). In that score, the highest potency was shown by the analogs from the naphtho[1,2-d][1,3]oxazole group 8–10, particularly by derivative 10 with a chlorine atom on the benzenediol moiety.
(§2) In the antiproliferative assay in vitro, the following human cell lines were applied: T47D (breast cancer), SW707 (rectal adenocarcinoma), A549 (non-small cell lung carcinoma) from the American Type Culture Collection (Rockville, MD, USA) and HCV29T (bladder cancer) from the Fibiger Institute, Copenhagen, Denmark. Cytotoxicity assay was performed after 72 h exposure of the cultured cells at the concentration ranging from 0.1 to 100 μg/mL of the tested agents. The SRB test measuring the cell proliferation inhibition in the in vitro culture was applied. The cellular material fixed with TCA was stained with 0.4% sulforhodamine B (Chemie GmbH, Steinheim, Germany) dissolved in 1% acetic acid (POCh, Gliwice, Poland) for 30 min.

[3] = test system: A549 (non-small cell lung carcinoma) cells; assay: SRB antiproliferative assay, A549; format: cell-based, human; conditions: means ± SD
Experimental: as §1, §2

[4] = test system: T47D (breast cancer) cells; assay: SRB antiproliferative assay, T47D; format: cell-based, human; conditions: 72 h, means ± SD
Experimental: as §1, §2

[5] = test system: SW707 (rectal adenocarcinoma) cells; assay: SRB antiproliferative assay, SW707; format: cell-based, human; conditions: means ± SD, read-out: IC50 SW 707
Experimental: as §1, §2

[6] = molecular target: T1, Acetylcholinesterase (AChE, E.C. 3.1.1.7, from human erythrocytes) (Homo sapiens, UniProt P22303); assay: biochemical; conditions: for Selectivity for AChE: IC50 (BChE)/IC50 (AChE); for IC50: means ± SEM of three independent experiments
T1 construct: Acetylcholinesterase (AChE, E.C. 3.1.1.7, from human erythrocytes); purchased Sigma-Aldrich (Steinheim, Germany); host or cells: human erythrocytes (natural source)
T1 sequence (P22303 other isoform, or with tags, fused parts or gaps): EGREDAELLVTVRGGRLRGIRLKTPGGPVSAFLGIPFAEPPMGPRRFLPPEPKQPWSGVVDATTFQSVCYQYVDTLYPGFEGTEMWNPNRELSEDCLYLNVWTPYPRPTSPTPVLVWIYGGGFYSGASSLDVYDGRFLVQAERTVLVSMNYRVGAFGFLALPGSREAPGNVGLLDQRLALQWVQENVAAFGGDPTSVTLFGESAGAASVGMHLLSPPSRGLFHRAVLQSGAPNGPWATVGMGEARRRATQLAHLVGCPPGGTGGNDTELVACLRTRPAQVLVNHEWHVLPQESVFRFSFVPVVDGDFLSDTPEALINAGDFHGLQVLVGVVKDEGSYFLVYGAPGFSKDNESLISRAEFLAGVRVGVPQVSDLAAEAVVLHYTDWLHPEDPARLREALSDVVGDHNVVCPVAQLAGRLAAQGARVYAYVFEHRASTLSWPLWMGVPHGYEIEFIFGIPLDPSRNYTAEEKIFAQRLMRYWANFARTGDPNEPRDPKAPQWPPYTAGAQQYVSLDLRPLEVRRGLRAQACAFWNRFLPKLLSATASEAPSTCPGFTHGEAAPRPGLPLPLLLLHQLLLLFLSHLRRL
Experimental: (§3) The compounds were evaluated by an in vitro assay as the AChE and BChE inhibitors. The studies were carried out using the modified Ellman’s method. […] The inhibitory activities against AChE and BChE of the newly-synthesized compounds were determined exactly, according to a previous paper. […] The samples were analysed in triplicate. IC50 values were designated from a dose–response curve obtained by plotting the percentage of inhibition versus the log concentration, using GraphPad Prism 8 software. […] AChE and BChE activity data were compared using the Kruskal–Wallis test at the significance level of 1%.

[7] = molecular target: T2, butyrylcholinesterase (BChE, E.C. 3.1.1.8, from equine serum) (Equus caballus, UniProt P81908); assay: biochemical; conditions: means ± SEM of three independent experiments
T2 construct: butyrylcholinesterase (BChE, E.C. 3.1.1.8, from equine serum); purchased Sigma-Aldrich (Steinheim, Germany); host or cells: equine serum (natural source)
T2 sequence (P81908 whole entry): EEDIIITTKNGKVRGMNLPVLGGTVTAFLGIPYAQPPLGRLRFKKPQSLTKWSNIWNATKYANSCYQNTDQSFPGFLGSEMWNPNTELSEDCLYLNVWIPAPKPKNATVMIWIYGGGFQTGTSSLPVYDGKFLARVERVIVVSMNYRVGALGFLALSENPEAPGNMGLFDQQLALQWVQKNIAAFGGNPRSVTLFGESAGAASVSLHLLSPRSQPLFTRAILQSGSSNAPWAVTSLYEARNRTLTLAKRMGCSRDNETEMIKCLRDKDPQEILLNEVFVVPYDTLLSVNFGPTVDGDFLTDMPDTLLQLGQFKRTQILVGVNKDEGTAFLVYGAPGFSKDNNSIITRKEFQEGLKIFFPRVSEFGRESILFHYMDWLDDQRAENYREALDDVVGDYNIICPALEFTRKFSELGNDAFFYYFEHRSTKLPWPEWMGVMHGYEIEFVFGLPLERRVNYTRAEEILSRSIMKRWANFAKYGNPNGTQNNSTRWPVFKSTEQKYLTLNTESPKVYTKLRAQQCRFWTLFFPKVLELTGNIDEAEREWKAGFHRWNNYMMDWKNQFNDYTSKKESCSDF
Experimental: as §3

[8] = Lipophilicity by RP-18 HPLC chromatography; format: physicochemical; conditions: for -S (slope of log k vs MeOH fraction): MeOH/acetate buffer, pH 7.4; for log kw: pH 7.4, extrapolation to pure water as mobile phase
Description: The lipophilicity parameter was estimated for the tested compounds as it is an important feature that influences the pharmacokinetic properties of bioactive compounds [46, 47]. Lipophilicity also determines some biological activities, such as the antiproliferative or fungistatic activity. For lipophilicity determination, reversed-phase column chromatography was used, with the octadecyl C-18 stationary phase and MeOH as the organic modifier in the isocratic conditions.
HPLC measurements were performed using a liquid chromatograph (Knauer, Berlin, Germany) with a dual pump and a UV-visible detector. The measurements were made at 254 or 320 nm at room temperature. A Eurosil Bioselect C18 (5 μm, 300 × 4.6 mm) column was applied as the stationary phase. The mobile phase consisted of different volume mixtures of 20 mM acetate buffer as the aqueous phase, and MeOH as the organic modifier (pH 7.4). The different concentrations of MeOH from 0.5 to 0.90 (v/v) range was used, depending on the structure of the compound at 0.05 intervals. The flow rate was 1 mL/min. Retention time of an unretained solute (t0) was determined by the injection of a small amount of acetone dissolved in water.
Regular changes in the retention coefficients of compounds in a function of the organic modifier MeOH content in the mobile phase are described by the Soczewiński–Wachtmeister equation [56]:log k = log kw + S φ(1)
φ—the volume fraction of organic modifier (MeOH) in the mobile phase; log kw—the intercept; S—slope of the regression curve. Log kw refers to the retention parameter of a compound with pure water as the mobile phase.

O=c1c(O)c(-c2ccc(O)c(O)c2)oc2cc(O)cc(O)c12 [quercetin, reference compound]
IC50 [1]: 0.032 ± 0.001 µM

N.N.[Cl][Pt][Cl] [cisplatin, reference compound]
IC50 [2]: 2.4 ± 0.32 µM | IC50 ([3]; 72 h): 3.07 ± 0.45 µM | IC50 [4]: 4.01 ± 1.58 µM | IC50 ([5]; 72 h): 3.65 ± 0.76 µM

CCc1cc(-c2nc3c(ccc4ccccc43)o2)c(O)cc1O [Compound 9, 4-Ethyl-6-(naphtho[1,2-d][1,3]oxazol-2-yl)benzene-1,3-diol]
Selectivity for AChE [6]: 1.971 | IC50 [6]: 0.516 ± 0.009 µM | IC50 [7]: 1.02 ± 0.032 µM | IC50 [1]: 0.214 ± 0.024 µM | IC50 ([2]; Homo sapiens, HCV29T): 3.72 ± 0.36 µM | IC50 ([3]; Homo sapiens, A549, 72 h): 4.94 ± 0.69 µM | IC50 ([4]; Homo sapiens, T47D): 7.28 ± 2.5 µM | IC50 ([5]; Homo sapiens, SW707, 72 h): 8.58 ± 3.4 µM | -S (slope of log k vs MeOH fraction) [8]: 5.395 | log kw [8]: 4.901

COC(=O)c1ccc2nc(-c3cc(Cl)c(O)cc3O)oc2c1 [Compound 6, Methyl 2-(5-chloro-2,4-dihydroxyphenyl)-1,3-benzoxazole-6-carboxylate]
Selectivity for AChE [6]: 0.394 | IC50 [6]: 0.831 ± 0.014 µM | IC50 [7]: 0.328 ± 0.027 µM | IC50 [1]: 0.861 ± 0.071 µM | IC50 ([2]; Homo sapiens, HCV29T): 7.54 ± 3.15 µM | IC50 ([3]; Homo sapiens, A549, 72 h): 10.5 ± 5.61 µM | IC50 ([4]; Homo sapiens, T47D): 6.61 ± 2.48 µM | IC50 ([5]; Homo sapiens, SW707, 72 h): 6.04 ± 0.89 µM | -S (slope of log k vs MeOH fraction) [8]: 5.477 | log kw [8]: 4.223

Oc1ccc(-c2nc3ccccc3o2)c(O)c1 [Compound 1, 4-(1,3-Benzoxazol-2-yl)benzene-1,3-diol]
IC50 ([2]; Homo sapiens, HCV29T): 33.9 ± 4.77 µM | -S (slope of log k vs MeOH fraction) [8]: 4.358 | log kw [8]: 3.273

CCc1cc(-c2nc3ccc(C(=O)OC)cc3o2)c(O)cc1O [Compound 5, Methyl 2-(5-ethyl-2,4-dihydroxyphenyl)-1,3-benzoxazole-6-carboxylate]
IC50 ([2]; Homo sapiens, HCV29T): 3.54 ± 1.05 µM | IC50 ([3]; Homo sapiens, A549, 72 h): 3.08 ± 0.26 µM | IC50 ([4]; Homo sapiens, T47D): 4.11 ± 1.27 µM | IC50 ([5]; Homo sapiens, SW707, 72 h): 2.13 ± 0.49 µM | -S (slope of log k vs MeOH fraction) [8]: 5.855 | log kw [8]: 3.774

COC(=O)c1ccc2nc(-c3ccc(O)c(C)c3O)oc2c1 [Compound 4, Methyl 2-(2,4-dihydroxy-3-methylphenyl)-1,3-benzoxazole-6-carboxylate]
IC50 ([2]; Homo sapiens, HCV29T): 4.64 ± 0.93 µM | IC50 ([3]; Homo sapiens, A549, 72 h): 3.71 ± 0.4 µM | IC50 ([4]; Homo sapiens, T47D): 3.2 ± 0.84 µM | IC50 ([5]; Homo sapiens, SW707, 72 h): 3.36 ± 0.84 µM | -S (slope of log k vs MeOH fraction) [8]: 5.002 | log kw [8]: 3.411

COC(=O)c1ccc2nc(-c3ccc(O)c(O)c3O)oc2c1 [Compound 7, Methyl 2-(2,3,4-trihydroxyphenyl)-1,3-benzoxazole-6-carboxylate]
Selectivity for AChE [6]: 3.644 | IC50 [6]: 0.183 ± 0.031 µM | IC50 [7]: 0.667 ± 0.004 µM | IC50 [1]: 0.887 ± 0.064 µM | IC50 ([2]; Homo sapiens, HCV29T): 23.3 ± 4.07 µM | -S (slope of log k vs MeOH fraction) [8]: 4.811 | log kw [8]: 2.800

Cc1c(O)ccc(-c2nc3ccc(O)cc3o2)c1O [Compound 2, 4-(6-Hydroxy-1,3-benzoxazol-2-yl)-2-methylbenzene-1,3-diol]
IC50 ([2]; Homo sapiens, HCV29T): 8.34 ± 1.53 µM | IC50 ([3]; Homo sapiens, A549, 72 h): 6.81 ± 2.23 µM | IC50 ([4]; Homo sapiens, T47D): 5.28 ± 0.16 µM | IC50 ([5]; Homo sapiens, SW707, 72 h): 4.38 ± 1.57 µM | -S (slope of log k vs MeOH fraction) [8]: 4.64 | log kw [8]: 3.301
